Experimental data published in patent US12479847B2 (DANA-FARBER CANCER INSTITUTE, INC., priority 2019, dated 2025).
Where two headings read alike, the source gives them in different places.

Molecular target: human LRRK2 kinase (Homo sapiens, UniProt Q5S007)
Conditions: ATP 10 μM, 60 minutes at 25° C.

human LRRK2 kinase, sequence (Q5S007 whole entry): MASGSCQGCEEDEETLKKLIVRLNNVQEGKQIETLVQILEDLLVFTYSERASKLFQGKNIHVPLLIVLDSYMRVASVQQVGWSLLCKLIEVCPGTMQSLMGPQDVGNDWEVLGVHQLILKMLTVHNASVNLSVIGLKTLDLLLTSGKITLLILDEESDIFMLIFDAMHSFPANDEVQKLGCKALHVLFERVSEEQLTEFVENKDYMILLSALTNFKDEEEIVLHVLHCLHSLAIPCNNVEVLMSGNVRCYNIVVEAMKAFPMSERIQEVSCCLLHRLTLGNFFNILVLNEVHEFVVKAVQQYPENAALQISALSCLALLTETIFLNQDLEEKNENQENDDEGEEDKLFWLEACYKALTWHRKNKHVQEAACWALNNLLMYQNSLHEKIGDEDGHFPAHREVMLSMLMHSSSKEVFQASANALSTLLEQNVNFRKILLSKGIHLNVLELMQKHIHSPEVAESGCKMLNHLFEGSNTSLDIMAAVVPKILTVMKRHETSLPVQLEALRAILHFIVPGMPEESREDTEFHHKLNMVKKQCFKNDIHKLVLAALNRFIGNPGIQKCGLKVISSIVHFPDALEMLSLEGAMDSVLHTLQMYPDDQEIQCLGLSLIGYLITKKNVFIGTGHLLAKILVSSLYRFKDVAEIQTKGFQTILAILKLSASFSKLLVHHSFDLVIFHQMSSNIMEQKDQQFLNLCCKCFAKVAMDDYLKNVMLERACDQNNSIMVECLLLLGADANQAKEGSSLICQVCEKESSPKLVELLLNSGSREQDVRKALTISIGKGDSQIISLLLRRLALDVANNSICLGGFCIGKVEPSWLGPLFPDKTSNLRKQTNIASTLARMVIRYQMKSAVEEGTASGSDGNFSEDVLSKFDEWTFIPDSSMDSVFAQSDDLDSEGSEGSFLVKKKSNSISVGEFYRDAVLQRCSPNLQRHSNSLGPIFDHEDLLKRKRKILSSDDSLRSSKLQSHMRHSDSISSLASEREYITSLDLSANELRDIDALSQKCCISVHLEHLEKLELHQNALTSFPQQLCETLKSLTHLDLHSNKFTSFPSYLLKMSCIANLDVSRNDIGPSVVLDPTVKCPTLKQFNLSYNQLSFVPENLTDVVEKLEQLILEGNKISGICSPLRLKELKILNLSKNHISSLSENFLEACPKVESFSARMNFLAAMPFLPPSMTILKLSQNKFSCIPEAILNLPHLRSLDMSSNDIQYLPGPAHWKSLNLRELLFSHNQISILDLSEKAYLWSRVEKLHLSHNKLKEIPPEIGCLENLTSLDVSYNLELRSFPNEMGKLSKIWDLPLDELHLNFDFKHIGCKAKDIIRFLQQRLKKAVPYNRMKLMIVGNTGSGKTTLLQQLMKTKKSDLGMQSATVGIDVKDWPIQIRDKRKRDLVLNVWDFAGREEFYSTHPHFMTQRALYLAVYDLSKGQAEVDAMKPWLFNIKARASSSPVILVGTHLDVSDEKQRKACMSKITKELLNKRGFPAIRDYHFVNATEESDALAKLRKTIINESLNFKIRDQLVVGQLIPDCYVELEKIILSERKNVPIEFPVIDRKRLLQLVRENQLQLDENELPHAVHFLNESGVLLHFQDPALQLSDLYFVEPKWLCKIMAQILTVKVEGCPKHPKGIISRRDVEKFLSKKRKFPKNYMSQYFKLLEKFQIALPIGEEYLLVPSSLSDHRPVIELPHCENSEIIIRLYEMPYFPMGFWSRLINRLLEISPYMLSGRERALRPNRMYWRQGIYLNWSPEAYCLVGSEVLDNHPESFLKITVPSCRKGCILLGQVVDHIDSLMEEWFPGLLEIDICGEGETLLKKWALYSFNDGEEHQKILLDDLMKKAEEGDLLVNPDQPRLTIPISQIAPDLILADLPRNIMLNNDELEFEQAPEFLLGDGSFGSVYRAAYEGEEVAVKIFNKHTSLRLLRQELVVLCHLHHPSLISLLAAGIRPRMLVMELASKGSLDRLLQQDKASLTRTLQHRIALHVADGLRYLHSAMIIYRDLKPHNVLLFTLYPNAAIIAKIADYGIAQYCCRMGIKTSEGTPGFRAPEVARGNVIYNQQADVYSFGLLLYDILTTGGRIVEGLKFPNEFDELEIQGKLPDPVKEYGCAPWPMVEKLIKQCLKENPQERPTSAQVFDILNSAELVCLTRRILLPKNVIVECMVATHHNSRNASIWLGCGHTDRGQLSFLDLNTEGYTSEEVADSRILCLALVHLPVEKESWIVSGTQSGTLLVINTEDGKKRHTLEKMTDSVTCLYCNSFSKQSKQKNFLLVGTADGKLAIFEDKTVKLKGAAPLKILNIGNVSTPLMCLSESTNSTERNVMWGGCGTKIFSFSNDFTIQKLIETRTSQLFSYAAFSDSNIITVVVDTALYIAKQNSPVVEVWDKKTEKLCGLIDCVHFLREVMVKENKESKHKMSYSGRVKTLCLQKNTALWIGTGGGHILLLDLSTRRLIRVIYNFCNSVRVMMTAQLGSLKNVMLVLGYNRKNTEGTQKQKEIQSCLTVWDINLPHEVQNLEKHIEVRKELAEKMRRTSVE

| Compound | IC50 (read-out: LRRK2, ADP-Glo) | IC50 (LRRK2, ADP-Glo) |
| --- | --- | --- |
| CCC(C)Nc1nc(Nc2ccc(S(C)(=O)=O)cc2OC)nc2[nH]cc(Cl)c12 (stereo in doubt) [Compound 53, (S)—N4-(sec-butyl)-5-chloro-N2-(2-methoxy-4-(methylsulfonyl)phenyl)-7H-pyrrolo[2,3-d]pyrimidine-2,4-diamine] | – | 0.1 to 1 µM |
| O=C(c1ccc(Nc2nc(NC3CC3)c3c(Cl)c[nH]c3n2)c2c1OCCO2)N1CCC(N2CCOCC2)CC1 [Compound 3, (8-((5-chloro-4-(cyclopropylamino)-7H-pyrrolo[2,3-d]pyrimidin-2-yl)amino)-2,3-dihydrobenzo[b][1,4]dioxin-5-yl)(4-morpholinopiperidin-1-yl)methanone] | – | < 0.01 µM |
| O=C(c1ccc(Nc2nc(NC3CCC3)c3c(Cl)c[nH]c3n2)c2c1OCCO2)N1CCC(N2CCOCC2)CC1 [Compound 4, (8-((5-chloro-4-(cyclobutylamino)-7H-pyrrolo[2,3-d]pyrimidin-2-yl)amino)-2,3-dihydrobenzo[b][1,4]dioxin-5-yl)(4-morpholinopiperidin-1-yl)methanone] | – | < 0.01 µM |
| COc1cc(S(=O)(=O)N2CCOCC2)ccc1Nc1nc(NC2CCC2)c2c(Cl)c[nH]c2n1 [Compound 7, 5-chloro-N4-cyclobutyl-N2-(2-methoxy-4-(morpholinosulfonyl)phenyl)-7H-pyrrolo[2,3-d]pyrimidine-2,4-diamine] | – | 0.1 to 1 µM |
| CCCNc1nc(Nc2ccc(S(C)(=O)=O)cc2OC)nc2[nH]cc(Cl)c12 [Compound 8, 5-chloro-N2-(2-methoxy-4-(methylsulfonyl)phenyl)-N4-propyl-7H-pyrrolo[2,3-d]pyrimidine-2,4-diamine] | – | 0.01 to 0.1 µM |
| COCCNc1nc(Nc2ccc(C(=O)N3CCOCC3)c3c2OCCO3)nc2[nH]cc(Cl)c12 [Compound 9, (8-((5-chloro-4-((2-methoxyethyl)amino)-7H-pyrrolo[2,3-d]pyrimidin-2-yl)amino)-2,3-dihydrobenzo[b][1,4]dioxin-5-yl)(morpholino)methanone] | – | < 0.01 µM |
| CNc1nc(Nc2ccc(C(=O)N3CCC(N4CCOCC4)CC3)c3c2OCCO3)nc2[nH]cc(Cl)c12 [Compound 10, (8-((5-chloro-4-(methylamino)-7H-pyrrolo[2,3-d]pyrimidin-2-yl)amino)-2,3-dihydrobenzo[b][1,4]dioxin-5-yl)(4-morpholinopiperidin-1-yl)methanone] | – | < 0.01 µM |
| CCNc1nc(Nc2ccc(S(C)(=O)=O)cc2OC)nc2[nH]cc(Cl)c12 [Compound 16, 5-chloro-N4-ethyl-N2-(2-methoxy-4-(methylsulfonyl)phenyl)-7H-pyrrolo[2,3-d]pyrimidine-2,4-diamine] | – | 0.01 to 0.1 µM |
| CCCNc1nc(Nc2ccc(S(=O)(=O)N3CCOCC3)cc2OC)nc2[nH]cc(Cl)c12 [Compound 18, 5-chloro-N2-(2-methoxy-4-(morpholinosulfonyl)phenyl)-N4-propyl-7H-pyrrolo[2,3-d]pyrimidine-2,4-diamine] | – | 0.1 to 1 µM |
| CCCNc1nc(Nc2ccc(C(=O)N3CCOCC3)c3c2OCCO3)nc2[nH]cc(Cl)c12 [Compound 20, (8-((5-chloro-4-(propylamino)-7H-pyrrolo[2,3-d]pyrimidin-2-yl)amino)-2,3-dihydrobenzo[b][1,4]dioxin-5-yl)(morpholino)methanone] | – | 0.01 to 0.1 µM |

The remaining lines, values ahead:

| IC50 (read-out: LRRK2, ADP-Glo) | IC50 (LRRK2, ADP-Glo) | Compound |
| --- | --- | --- |
| 0.1 to 1 µM | – | CCC(C)Nc1nc(Nc2ccc(S(=O)(=O)N3CCOCC3)cc2OC)nc2[nH]cc(Cl)c12 (stereo in doubt) [Compound 51, (S)—N4-(sec-butyl)-5-chloro-N2-(2-methoxy-4-(morpholinosulfonyl)phenyl)-7H-pyrrolo[2,3-d]pyrimidine-2,4-diamine] |
| – | 0.01 to 0.1 µM | CCC(C)Nc1nc(Nc2ccc(S(=O)(=O)N3CCC(N4CCOCC4)CC3)cc2OC)nc2[nH]cc(Cl)c12 (stereo in doubt) [Compound 52, (S)—N4-(sec-butyl)-5-chloro-N2-(2-methoxy-4-((4-morpholinopiperidin-1-yl)sulfonyl)phenyl)-7H-pyrrolo[2,3-d]pyrimidine-2,4-diamine] |
| – | < 0.01 µM | CCNc1nc(Nc2ccc(C(=O)N3CCC(N4CCOCC4)CC3)c3c2OCCO3)nc2[nH]cc(Cl)c12 [Compound 1, (8-((5-chloro-4-(ethylamino)-7H-pyrrolo[2,3-d]pyrimidin-2-yl)amino)-2,3-dihydrobenzo[b][1,4]dioxin-5-yl)(4-morpholinopiperidin-1-yl)methanone] |
| – | < 0.01 µM | COCCNc1nc(Nc2ccc(C(=O)N3CCC(N4CCOCC4)CC3)c3c2OCCO3)nc2[nH]cc(Cl)c12 [Compound 5, (8-((5-chloro-4-((2-methoxyethyl)amino)-7H-pyrrolo[2,3-d]pyrimidin-2-yl)amino)-2,3-dihydrobenzo[b][1,4]dioxin-5-yl)(4-morpholinopiperidin-1-yl)methanone] |
| – | > 1 µM | CCNc1nc(Nc2ccc(S(=O)(=O)N3CCOCC3)cc2OC)nc2[nH]cc(Cl)c12 [Compound 6, 5-chloro-N4-ethyl-N2-(2-methoxy-4-(morpholinosulfonyl)phenyl)-7H-pyrrolo[2,3-d]pyrimidine-2,4-diamine] |
| – | < 0.01 µM | CNc1nc(Nc2ccc(S(=O)(=O)N3CCOCC3)cc2OC)nc2[nH]cc(Cl)c12 [Compound 11, 5-chloro-N2-(2-methoxy-4-(morpholinosulfonyl)phenyl)-N4-methyl-7H-pyrrolo[2,3-d]pyrimidine-2,4-diamine] |
| – | < 0.01 µM | CNc1nc(Nc2ccc(S(C)(=O)=O)cc2OC)nc2[nH]cc(Cl)c12 [Compound 13, 5-chloro-N2-(2-methoxy-4-(methylsulfonyl)phenyl)-N4-methyl-7H-pyrrolo[2,3-d]pyrimidine-2,4-diamine] |
| – | < 0.01 µM | CNc1nc(Nc2ccc(C(=O)N3CCOCC3)c3c2OCCO3)nc2[nH]cc(Cl)c12 [Compound 14, (8-((5-chloro-4-(methylamino)-7H-pyrrolo[2,3-d]pyrimidin-2-yl)amino)-2,3-dihydrobenzo[b][1,4]dioxin-5-yl)(morpholino)methanone] |
| – | < 0.01 µM | CCNc1nc(Nc2ccc(S(=O)(=O)N3CCC(N4CCOCC4)CC3)cc2OC)nc2[nH]cc(Cl)c12 [Compound 15, 5-chloro-N4-ethyl-N2-(2-methoxy-4-((4-morpholinopiperidin-1-yl)sulfonyl)phenyl)-7H-pyrrolo[2,3-d]pyrimidine-2,4-diamine] |
| – | < 0.01 µM | CCNc1nc(Nc2ccc(C(=O)N3CCOCC3)c3c2OCCO3)nc2[nH]cc(Cl)c12 [Compound 17, (8-((5-chloro-4-(ethylamino)-7H-pyrrolo[2,3-d]pyrimidin-2-yl)amino)-2,3-dihydrobenzo[b][1,4]dioxin-5-yl)(morpholino)methanone] |
| – | < 0.01 µM | COCCNc1nc(Nc2ccc(S(=O)(=O)N3CCOCC3)cc2OC)nc2[nH]cc(Cl)c12 [Compound 21, 5-chloro-N2-(2-methoxy-4-(morpholinosulfonyl)phenyl)-N4-(2-methoxyethyl)-7H-pyrrolo[2,3-d]pyrimidine-2,4-diamine] |
| – | < 0.01 µM | COCCNc1nc(Nc2ccc(S(=O)(=O)N3CCC(N4CCOCC4)CC3)cc2OC)nc2[nH]cc(Cl)c12 [Compound 22, 5-chloro-N2-(2-methoxy-4-((4-morpholinopiperidin-1-yl)sulfonyl)phenyl)-N4-(2-methoxyethyl)-7H-pyrrolo[2,3-d]pyrimidine-2,4-diamine] |
| – | < 0.01 µM | COCCNc1nc(Nc2ccc(S(C)(=O)=O)cc2OC)nc2[nH]cc(Cl)c12 [Compound 23, 5-chloro-N2-(2-methoxy-4-(methylsulfonyl)phenyl)-N4-(2-methoxyethyl)-7H-pyrrolo[2,3-d]pyrimidine-2,4-diamine] |
